{
  "source": "patent US20210120808A1",
  "about": "“Methods and Systems for Synergistic Continuity Approaches to Treatment and Preservation of Biological Cells” (Membrane Protective Technologies, Inc., priority 2017, published 2021)",
  "test_system": "phospholipase A2",
  "test": "Egg yolk coagulation by goat seminal plasma in lactose yolk extender, image analysis with ImageJ",
  "type": "biochemical",
  "protocol": "An egg yolk extender was prepared substituting lactose (Trizma base 131.5 mM, Lactose 73 mM 40% v:v egg yolk), without citric acid and pH was adjusted to a standard extender pH of 7. Semen from […] was collected using an artificial vagina. The ejaculate was centrifuged for 5 min at 1000×g. The supernatant (seminal plasma) was removed, then 1 part seminal plasma was added to 1 part extender to create a 20% yolk solution. Extender was either lactose yolk extender alone or lactose yolk extender modified to contain the phospholipase inhibitor curcumin as found in Sea Buckthorn (see Gupta et al. Molecular and Cellular biochemistry October 2006 290:193, hereby incorporated by reference). Representative pictures were taken of each solution, then the 22° C. solutions of seminal plasma plus the various extenders were frozen to −80° C. and allowed to remain frozen for >24 hrs. Samples were thawed by incubation in 37° C. water bath for 1 minute, then representative pictures were taken. For each picture, the negative space (the white area visible between droplets) was measured using ImageJ software by adjusting the image threshold using “Auto” setting then analyzing particle size (see Rasband, W. S., ImageJ, U.S. National Institutes of Health, Bethesda, Md., USA, https://imagej.nih.gov/ij/, 1997-2018, hereby incorporated by reference). The mean particle size was recorded and the images were analyzed in triplicate. […] The left column is a non-limiting example of a pictorial representation of the lactose yolk solution without seminal plasma (control) pre-freezing and post-freezing. One observes that there is no significant change in the size of the egg yolk lipid droplets, and no coagulation has occurred.",
  "note": "Marks after values point to notes of the source that are not given here.",
  "data": [
    {"smiles": "COc1cc(/C=C/C(=O)CC(=O)/C=C/c2ccc(O)c(OC)c2)ccc1O", "note": "[curcumin]", "values": [
      {"measurement": "coagulation of egg yolk particles compared to Control", "setting": "area of coagulation, seminal plasma with vs without inhibitor, FIG. 8", "result": "statically significant decrease"},
      {"measurement": "Post-Thaw Area", "setting": "frozen to −80° C. >24 hrs, thawed at 37° C., single pygmy buck, p < 0.05", "result": "35.6* pixel^2"},
      {"measurement": "Pre-Freeze Area", "setting": "goat seminal plasma plus lactose yolk extender, 0.2% curcumin, single pygmy buck, p < 0.05", "result": "26.3* pixel^2"},
      {"measurement": "pre-freeze coagulation", "setting": "pre-freeze seminal plasma with 0.2% plant-derived curcumin vs without curcumin", "result": "less coagulated"},
      {"measurement": "Coagulation rank", "setting": "single pygmy buck, untreated seminal plasma ranks 2", "result": 1}
    ]}
  ]
}
